In patent US20220409570A1, “COMPOSITION OF N-PALMITOYL-ETHANOLAMIDE AND BAICALEIN IN CO-MICRONIZED FORM” (EPITECH GROUP S.P.A., priority 2021, published 2022):

Columns and labels:
Type in all cases: in vivo, Male Sprangue Dawley rats
Bax = assay: Western blot of pro-apoptotic factor Bax in prostate tissue of BPH rats; conditions: per os daily for 14 days, co-micronized PEA-Baicalein 10 mg/kg, um-PEA 9 mg/kg, Baicalein 1 mg/kg, vs BPH+vehicle, FIG. 3C
Text: (§1) Male Sprangue Dawley rats (200-250 gr, Envigo, Italy) fed ad libitum and housed in cages with controlled sleep/wake cycle were used for the in vivo experimentation. Before the start of the experimentation, the animals were subjected to an acclimatization period of one week considering all the experimental procedures and protocols, compliant with the principles of care and welfare of laboratory animals approved by the Italian Ministry of Health and European directives (Italian Legislative Decree 2014/26 and EU Directive 2010/63) and by the OPBA of the University of Messina. […]
(§2) The animals were euthanized 14 days after the start of the experimentation. […] Specifically, the DHT levels were analyzed in the plasma samples with the commercially available Enzyme-linked Immunosorbent Assay (ELISA) (My BioSource). The samples were dosed with the microplate reader and the absorbance was read spectrophotometrically at 450 nm. […] The protein expression was quantified by densitometry (BIORAD ChemiDoc™ XRS+software) and normalized to the housekeeping gene β-actin.

PSA = assay: Western blot of PSA in prostate tissue of BPH rats; conditions: per os daily for 14 days, co-micronized PEA-Baicalein 10 mg/kg, um-PEA 9 mg/kg, Baicalein 1 mg/kg, vs BPH+vehicle, FIG. 2D
Text: as §1, §2

Bcl-2 = assay: Western blot of anti-apoptotic factor Bcl-2 in prostate tissue of BPH rats; conditions: per os daily for 14 days, co-micronized PEA-Baicalein 10 mg/kg, um-PEA 9 mg/kg, Baicalein 1 mg/kg, vs BPH+vehicle, FIG. 3B
Text: as §1, §2

DHT = assay: Serum DHT levels (ELISA) in rats with testosterone propionate-induced BPH; conditions: per os daily for 14 days, co-micronized PEA-Baicalein 10 mg/kg (9:1), um-PEA 9 mg/kg, Baicalein 1 mg/kg, vs BPH+vehicle, FIG. 2A
Text: as §1, §2

AR = assay: Western blot of AR in prostate tissue of BPH rats; conditions: per os daily for 14 days, co-micronized PEA-Baicalein 10 mg/kg, um-PEA 9 mg/kg, Baicalein 1 mg/kg, vs BPH+vehicle, FIG. 2C
Text: as §1, §2

5α-red 2 = assay: Western blot of 5α-red 2 in prostate tissue of BPH rats; conditions: per os daily for 14 days, co-micronized PEA-Baicalein 10 mg/kg, um-PEA 9 mg/kg, Baicalein 1 mg/kg, normalized to β-actin, FIG. 2B
Text: as §1, §2

[1] = tested on: testosterone propionate-induced BPH (Benign Prostatic Hyperplasia); assay: Weight of the prostate in BPH rats; conditions: per os daily for 14 days, co-micronized PEA-Baicalein 10 mg/kg, um-PEA 9 mg/kg, FIG. 3A
Text: as §1, §2

O=c1cc(-c2ccccc2)oc2cc(O)c(O)c(O)c12 [Baicalein, 5,6,7-trihydroxyflavone]
Expression of the pro-apoptotic factor Bax (WB densitometry) (Bax): did not show a statistically significant change
Expression (tissue levels) of PSA (WB densitometry) (PSA): did not bring significant changes
Levels of the anti-apoptotic factor Bcl-2 (WB densitometry) (Bcl-2): did not show a statistically significant change
Serum levels of DHT (DHT): markedly elevated
Expression (tissue levels) of AR (WB densitometry) (AR): did not bring significant changes
Expression of the 5α-red 2 protein in prostate tissue (WB densitometry) (5α-red 2): not capable of reducing the expression of such an enzyme

CCCCCCCCCCCCCCCC(=O)NCCO [um-PEA, Palmitoylethanolamide]
Expression of the pro-apoptotic factor Bax (WB densitometry) (Bax): decidedly minor effect and with lower statistical significance
Expression (tissue levels) of PSA (WB densitometry) (PSA): significantly greater and clearer effect, with respect to um-PEA alone
Levels of the anti-apoptotic factor Bcl-2 (WB densitometry) (Bcl-2): decidedly minor effect and with lower statistical significance
Serum levels of DHT (DHT): more than the um-PEA (9 mg/kg), significantly reduces serum DHT
Expression of the 5α-red 2 protein in prostate tissue (WB densitometry) (5α-red 2): more than the um-PEA alone at 9 mg/kg, significantly reduces the expression of the enzyme 5α-red 2
Weight of the prostate [1]: progressive decrease in prostate weight
